Literature values, collected in patent publication US9855261B2, “Polymeric compound having camptothecin compound and anti-cancer effect enhancer bound thereto, and use of same” (priority 2012, dated 2018).

Details: of its dose

share of dose excreted renally: 20-40%
Structure (SMILES): CC[C@@]1(O)C(=O)OCc2c1cc1n(c2=O)Cc2cc3c(CN(C)C)c(O)ccc3nc2-1 [Topotecan]
